Measured values from PubChem BioAssay (NCI).
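1) Cells in 96-well plates. 2) Compound, 48 h, 5 concentrations. 3) Linear interpolation between surrounding doses. 4) Unreached endpoint = highest concentration. Abbreviation: GI50, concentration required for 50% inhibition of growth. TGI: concentration producing complete growth inhibition.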

Assays:
Test in all cases: NCI-60 cell line screen, 48 h
[1] = system: SK-MEL-2 melanoma
[2] = system: NCI-H226 lung
[3] = system: BT-549 breast
[4] = system: HS 578T breast
[5] = system: UO-31 renal
[6] = system: DU-145 prostate
[7] = system: MDA-MB-435
[8] = system: NCI-H23 lung
[9] = system: T-47D breast
[10] = system: OVCAR-3 ovarian
[11] = system: SN12C renal
[12] = system: RXF 393 renal
[13] = system: U251 CNS
[14] = system: HCT-116 colon
[15] = system: SNB-75 CNS
[16] = system: 786-0 renal
[17] = system: SF-295 CNS
[18] = system: CCRF-CEM leukemia
[19] = system: PC-3 prostate
[20] = system: OVCAR-4 ovarian
[21] = system: K-562 leukemia
[22] = system: RPMI-8226 leukemia
[23] = system: IGROV1 ovarian
[24] = system: SK-MEL-5 melanoma
[25] = system: MOLT-4 leukemia
[26] = system: SNB-19 CNS
[27] = system: NCI/ADR-RES ovarian
[28] = system: HCT-15 colon
[29] = system: HOP-92 NSCLC
[30] = system: CAKI-1 renal
[31] = system: NCI-H522 lung
[32] = system: SF-268 CNS
[33] = system: KM12 colon
[34] = system: HT29 colon
[35] = system: A498 renal
[36] = system: SR leukemia
[37] = system: HL-60(TB) leukemia
[38] = system: SK-MEL-28 melanoma
[39] = system: ACHN renal
[40] = system: HCC-2998 colon
[41] = system: TK-10 renal
[42] = system: COLO 205 colon
[43] = system: M14 melanoma
[44] = system: UACC-62 melanoma
[45] = system: OVCAR-8 ovarian
[46] = system: NCI-H460 lung
[47] = system: SF-539 CNS
[48] = system: OVCAR-5 ovarian
[49] = system: LOX IMVI melanoma
[50] = system: A549 NSCLC
[51] = system: HOP-62 NSCLC
[52] = system: SW-620 colon
[53] = system: MALME-3M melanoma
[54] = system: SK-OV-3 ovarian
[55] = system: EKVX NSCLC
[56] = system: UACC-257 melanoma
[57] = system: MCF7 breast
[58] = system: MDA-MB-231 breast

NC(N)=N/N=C/c1cccc(Cl)c1Cl
GI50 [1]: 2.22 µM | TGI [1]: 4.16 µM | GI50 [2]: 13.6 µM | TGI [2]: 29.2 µM | GI50 [3]: 13.2 µM | TGI [3]: 28.7 µM | GI50 [4]: 12.2 µM | TGI [4]: 34.9 µM | GI50 [5]: 10.1 µM | TGI [5]: 22.7 µM | GI50 [6]: 9.18 µM | TGI [6]: 21.1 µM | GI50 [7]: 1.77 µM | TGI [7]: 3.89 µM | GI50 [8]: 11.2 µM | TGI [8]: 26.4 µM | GI50 [9]: 1.54 µM | TGI [9]: 3.64 µM | GI50 [10]: 4.55 µM | TGI [10]: 14.9 µM | GI50 [11]: 3.92 µM | TGI [11]: 16.3 µM | GI50 [12]: 4.75 µM | TGI [12]: 18.3 µM | GI50 [13]: 3.4 µM | TGI [13]: 13.2 µM | GI50 [14]: 3.24 µM | TGI [14]: 10.8 µM | GI50 [15]: 11.6 µM | TGI [15]: 26.9 µM | GI50 [16]: 11.1 µM | TGI [16]: 24.7 µM | GI50 [17]: 2.83 µM | TGI [17]: 10.3 µM | GI50 [18]: 7.26 µM | TGI [18]: 29.2 µM | GI50 [19]: 10.8 µM | TGI [19]: 23.6 µM | GI50 [20]: 13 µM | TGI [20]: 26.8 µM | GI50 [21]: 3.92 µM | TGI [21]: 13.9 µM | GI50 [22]: 3.39 µM | TGI [22]: 15.1 µM | GI50 [23]: 11 µM | TGI [23]: 25.6 µM | GI50 [24]: 2.33 µM | TGI [24]: 6.64 µM | GI50 [25]: 6.13 µM | TGI [25]: 23.9 µM | GI50 [26]: 3.32 µM | TGI [26]: 11.8 µM | GI50 [27]: 8.38 µM | TGI [27]: 24 µM | GI50 [28]: 3.25 µM | TGI [28]: 11.7 µM | GI50 [29]: 1.19 µM | TGI [29]: 5.88 µM | GI50 [30]: 6.62 µM | TGI [30]: 21.8 µM | GI50 [31]: 3.16 µM | TGI [31]: 13.6 µM | GI50 [32]: 11.8 µM | TGI [32]: 25.5 µM | GI50 [33]: 2.17 µM | TGI [33]: 4.91 µM | GI50 [34]: 2.31 µM | TGI [34]: 5.98 µM | GI50 [35]: 11.1 µM | TGI [35]: 25.6 µM | GI50 [36]: 2.72 µM | TGI [36]: 11.2 µM | GI50 [37]: 3.46 µM | TGI [37]: 8.16 µM | GI50 [38]: 4.24 µM | TGI [38]: 14.7 µM | GI50 [39]: 12.4 µM | TGI [39]: 25.9 µM | GI50 [40]: 1.73 µM | TGI [40]: 3.47 µM | GI50 [41]: 11.9 µM | TGI [41]: 24.4 µM | GI50 [42]: 1.69 µM | TGI [42]: 3.13 µM | GI50 [43]: 1.98 µM | TGI [43]: 4.04 µM | GI50 [44]: 1.85 µM | TGI [44]: 4.96 µM | GI50 [45]: 8.93 µM | TGI [45]: 25.8 µM | GI50 [46]: 3.76 µM | TGI [46]: 14.7 µM | GI50 [47]: 15.6 µM | TGI [47]: 31.2 µM | GI50 [48]: 12.4 µM | TGI [48]: 26.3 µM | GI50 [49]: 2.49 µM | TGI [49]: 8.4 µM | GI50 [50]: 7.51 µM | TGI [50]: 21.9 µM | GI50 [51]: 11.7 µM | TGI [51]: 24.1 µM | GI50 [52]: 2.25 µM | TGI [52]: 5.89 µM | GI50 [53]: 4.62 µM | TGI [53]: 18.1 µM | GI50 [54]: 7.06 µM | TGI [54]: 20 µM | GI50 [55]: 9.02 µM | TGI [55]: 24.2 µM | GI50 [56]: 6.26 µM | TGI [56]: 20.6 µM | GI50 [57]: 2.09 µM | TGI [57]: 5.03 µM | GI50 [58]: 3.63 µM | TGI [58]: 14.7 µM

CCCC(=O)NC(c1ccc2c(c1)OCO2)c1ccc2cccnc2c1O (stereo not given)
GI50 [1]: 4.99 µM | TGI [1]: > 100 µM | GI50 [2]: 2.21 µM | TGI [2]: 8.63 µM | GI50 [3]: 2.09 µM | TGI [3]: 83.7 µM | GI50 [4]: 5.76 µM | TGI [4]: 78.8 µM | GI50 [5]: 0.557 µM | TGI [5]: 18.4 µM | GI50 [6]: 2 µM | TGI [6]: > 100 µM | GI50 [7]: 3.7 µM | TGI [7]: > 100 µM | GI50 [8]: 1.78 µM | TGI [8]: > 100 µM | GI50 [9]: 2.24 µM | TGI [9]: > 100 µM | GI50 [10]: 0.427 µM | TGI [10]: 15.4 µM | GI50 [11]: 2.28 µM | TGI [11]: > 100 µM | GI50 [12]: 1.47 µM | TGI [12]: 7.54 µM | GI50 [13]: 1.15 µM | TGI [13]: > 100 µM | GI50 [14]: 0.387 µM | TGI [14]: 56.1 µM | GI50 [15]: 2.18 µM | TGI [15]: 73 µM | GI50 [16]: 1.64 µM | TGI [16]: 14.7 µM | GI50 [17]: 0.728 µM | TGI [17]: 42.6 µM | GI50 [18]: 0.46 µM | TGI [18]: > 100 µM | GI50 [19]: 0.729 µM | TGI [19]: > 100 µM | GI50 [20]: 0.375 µM | TGI [20]: 6.02 µM | GI50 [21]: 0.976 µM | TGI [21]: > 100 µM | GI50 [22]: 1.03 µM | TGI [22]: 27.8 µM | GI50 [23]: 0.888 µM | TGI [23]: > 100 µM | GI50 [24]: 1.74 µM | TGI [24]: 3.9 µM | GI50 [25]: 0.441 µM | TGI [25]: > 100 µM | GI50 [26]: 2.28 µM | TGI [26]: > 100 µM | GI50 [27]: 0.443 µM | TGI [27]: 16.6 µM | GI50 [28]: 0.394 µM | TGI [28]: 24.6 µM | GI50 [29]: 1.55 µM | TGI [29]: 36.1 µM | GI50 [30]: 0.669 µM | TGI [30]: > 100 µM | GI50 [31]: 1.63 µM | TGI [31]: > 100 µM | GI50 [32]: 1.46 µM | TGI [32]: > 100 µM | GI50 [33]: 2.09 µM | TGI [33]: > 100 µM | GI50 [34]: 3.92 µM | TGI [34]: > 100 µM | GI50 [35]: 3.22 µM | TGI [35]: 12.6 µM | GI50 [36]: 0.402 µM | TGI [36]: > 100 µM | GI50 [37]: 0.317 µM | TGI [37]: 4.76 µM | GI50 [38]: 3.03 µM | TGI [38]: > 100 µM | GI50 [39]: 0.466 µM | TGI [39]: > 100 µM | GI50 [40]: 2.21 µM | TGI [40]: > 100 µM | GI50 [41]: 2.97 µM | TGI [41]: > 100 µM | GI50 [42]: 2.73 µM | TGI [42]: > 100 µM | GI50 [43]: 1.08 µM | TGI [43]: 20.6 µM | GI50 [44]: 1.3 µM | TGI [44]: 7.3 µM | GI50 [45]: 1.48 µM | TGI [45]: > 100 µM | GI50 [46]: 0.527 µM | TGI [46]: 10.6 µM | GI50 [47]: 1.41 µM | TGI [47]: > 100 µM | GI50 [48]: 2.75 µM | TGI [48]: > 100 µM | GI50 [49]: 0.808 µM | TGI [49]: > 100 µM | GI50 [50]: 2.27 µM | TGI [50]: > 100 µM | GI50 [51]: 1.2 µM | TGI [51]: > 100 µM | GI50 [52]: 1.2 µM | TGI [52]: > 100 µM | GI50 [53]: 2.17 µM | TGI [53]: > 100 µM | GI50 [54]: 1.89 µM | TGI [54]: 29.7 µM | GI50 [55]: 1.73 µM | TGI [55]: 21.4 µM | GI50 [57]: 0.748 µM | TGI [57]: > 100 µM | GI50 [58]: 1.64 µM | TGI [58]: > 100 µM
